What was measured:
[1] = Oral bioavailability in rat; assay type: ADME, organism-based; details: in vivo
[2] = Half life in iv dosed rat; assay type: ADME, organism-based; details: in vivo

bioavailability [1]: 21%
half-life [2]: 99 h
SMILES: CCCN(CCC)CCCCN(C)Cc1ccc(CN(Cc2ncc[nH]2)Cc2nccn2C)cc1
